Assay results taken from PubChem BioAssay AID330 (DTP/NCI, 2004).
Where “and” joins values, the source holds several entries; their conditions need not be identical. Identical values can stand only once. Inconclusive results and toxic doses are left out. Rule for the calls: active = survival T/C of 150% or more; inactive = T/C below 125% in these data.

Test system: P388 leukemia ip, CD2F1 mice, survival T/C
Assay: NCI In Vivo Anticancer Drug Screen. Data for tumor model P388 Leukemia (intraperitoneal) in CD2F1 (CDF1) mice
Settings: endpoint: median survival time, higher = longer survival
How it was run: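 Mice carrying the transplanted tumor received test compound or vehicle. Survival was recorded in each group, and the value is the treated-group measurement divided by that of the vehicle-treated control group.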

[1] = dose: 50.0 mg/kg/injection, schedule: Q01DX009 (ip), vehicle: saline with Tween-80
[2] = dose: 100.0 mg/kg/injection, schedule: Q01DX009 (ip), vehicle: saline with Tween-80
[3] = dose: 50.0 mg/kg/injection, schedule: Q01DX005 (ip), vehicle: Klucel (hydroxypropylcellulose) (HPC)
[4] = dose: 100.0 mg/kg/injection, schedule: Q01DX005 (ip), vehicle: Klucel (hydroxypropylcellulose) (HPC)

Measured: T/C

CCNC1(N(C)C)N=C(N(C)C)N=C(N(C)C)O1 (configuration not stated)
inactive: dose: 50.0 mg/kg/injection, schedule: Q01DX005 (ip), vehicle: saline 96 % of control | dose: 100.0 mg/kg/injection, schedule: Q01DX005 (ip), vehicle: saline 96 % of control

CCCC/C(C)=N/NC(=S)SC
inactive: dose: 3.12 mg/kg/injection, schedule: Q01DX009 (ip), vehicle: saline 100 % of control | dose: 6.25 mg/kg/injection, schedule: Q01DX009 (ip), vehicle: saline 106 % of control | dose: 12.5 mg/kg/injection, schedule: Q01DX009 (ip), vehicle: saline 100 % of control

COc1ccc2nc3cc(Cl)ccc3c(NCC3CCCN4CCCCC34)c2c1 (configuration not stated)
inactive: dose: 12.5 mg/kg/injection, schedule: Q01DX005 (ip), vehicle: distilled water + Tween-80 98 % of control | dose: 25.0 mg/kg/injection, schedule: Q01DX005 (ip), vehicle: distilled water + Tween-80 103 % of control | dose: 50.0 mg/kg/injection, schedule: Q01DX005 (ip), vehicle: distilled water + Tween-80 104 % of control | dose: 100.0 mg/kg/injection, schedule: Q01DX005 (ip), vehicle: distilled water + Tween-80 113 % of control

Nc1nnc2nc(CC(=O)c3ccccc3)c(=O)[nH]n12
inactive: dose: 60.0 mg/kg/injection, schedule: Q01DX005 (ip), vehicle: saline 96 % of control | dose: 120.0 mg/kg/injection, schedule: Q01DX005 (ip), vehicle: saline 100 % of control | dose: 240.0 mg/kg/injection, schedule: Q01DX005 (ip), vehicle: saline 100 % of control

CCC(N)Cc1cc(OC)c(C)cc1OC (configuration not stated)
inactive: dose: 25.0 mg/kg/injection, schedule: Q01DX009 (ip), vehicle: saline with Tween-80 90 % of control | [1] 98 % of control and 99 % of control | [2] 103 % of control

CC(=O)OC1=C(C)C2=C3OC(=O)C(C)=C3CC[C@@]2(C)[C@@H](Cl)[C@@H]1Cl
inactive: dose: 25.0 mg/kg/injection, schedule: Q01DX005 (ip), vehicle: Klucel (hydroxypropylcellulose) (HPC) 104 % of control and 113 % of control | [3] 104 % of control and 108 % of control and 111 % of control | [4] 114 % of control and 117 % of control and 121 % of control | dose: 200.0 mg/kg/injection, schedule: Q01DX005 (ip), vehicle: Klucel (hydroxypropylcellulose) (HPC) 108 % of control and 119 % of control and 120 % of control

Cc1cn(O)c(=N)c(C(N)=O)n1
inactive: dose: 37.5 mg/kg/injection, schedule: Q01DX009 (ip), vehicle: saline with Tween-80 90 % of control | dose: 75.0 mg/kg/injection, schedule: Q01DX009 (ip), vehicle: saline with Tween-80 100 % of control | dose: 150.0 mg/kg/injection, schedule: Q01DX009 (ip), vehicle: saline with Tween-80 107 % of control

CS(=O)(=O)C(=S)Sc1ccccc1
inactive: dose: 25.0 mg/kg/injection, schedule: Q01DX001 (ip), vehicle: saline with Tween-80 97 % of control | dose: 50.0 mg/kg/injection, schedule: Q01DX001 (ip), vehicle: saline with Tween-80 97 % of control

CCCCOC(=O)CC(O)C(=O)OCCCC (configuration not stated)
inactive: [1] 109 % of control | [2] 119 % of control | dose: 200.0 mg/kg/injection, schedule: Q01DX009 (ip), vehicle: saline with Tween-80 114 % of control

Cn1c(=O)c2nc3c(=O)n(C)c(=O)n(C)c3nc2n(C)c1=O
inactive: dose: 6.25 mg/kg/injection, schedule: Q01DX009 (ip), vehicle: Klucel (hydroxypropylcellulose) (HPC) 100 % of control and 102 % of control and 118 % of control | dose: 12.5 mg/kg/injection, schedule: Q01DX009 (ip), vehicle: Klucel (hydroxypropylcellulose) (HPC) 101 % of control and 103 % of control and 116 % of control | dose: 25.0 mg/kg/injection, schedule: Q01DX009 (ip), vehicle: Klucel (hydroxypropylcellulose) (HPC) 104 % of control and 120 % of control | dose: 50.0 mg/kg/injection, schedule: Q01DX009 (ip), vehicle: Klucel (hydroxypropylcellulose) (HPC) 111 % of control

Cn1nnc(-c2ccc(C(=O)O)cc2)n1
inactive: [3] 91 % of control | [4] 91 % of control

CCc1nc(N)nc(N)c1-c1ccc(NCCCCCCCCCCCCN)c([N+](=O)[O-])c1
inactive: dose: 15.0 mg/kg/injection, schedule: Q01DX005 (ip), vehicle: saline with Tween-80 117 % of control | dose: 30.0 mg/kg/injection, schedule: Q01DX005 (ip), vehicle: saline with Tween-80 107 % of control | dose: 120.0 mg/kg/injection, schedule: Q01DX005 (ip), vehicle: saline with Tween-80 91 % of control

O=C1C2CCC(C2)C1CN1CCCCC1 (configuration not stated)
inactive: dose: 6.25 mg/kg/injection, schedule: Q01DX005 (ip), vehicle: saline with Tween-80 101 % of control | dose: 12.5 mg/kg/injection, schedule: Q01DX005 (ip), vehicle: saline with Tween-80 98 % of control | dose: 25.0 mg/kg/injection, schedule: Q01DX005 (ip), vehicle: saline with Tween-80 103 % of control

NC(=S)c1cncnc1N
inactive: dose: 25.0 mg/kg/injection, schedule: Q04DX003 (ip), vehicle: saline with Tween-80 102 % of control | dose: 50.0 mg/kg/injection, schedule: Q04DX003 (ip), vehicle: saline with Tween-80 99 % of control | dose: 100.0 mg/kg/injection, schedule: Q04DX003 (ip), vehicle: saline with Tween-80 104 % of control
